Data taken from patent publication US20260248918A1, “COMPOSITIONS AND METHODS OF SUPPRESSING AVERSIVENESS OF PHARMACEUTICALS AND INGESTIBLE MATERIALS” (Monell Chemical Senses Center, priority 2019, published 2026).

Assays:
TAS2R1 = target: T1, TAS2R1 (Homo sapiens, UniProt Q9NYW7); assay: Blocking of TAS2R1 response to the APIs; assay type: cell-based; settings: data not shown
T1 sequence (Q9NYW7 1-299): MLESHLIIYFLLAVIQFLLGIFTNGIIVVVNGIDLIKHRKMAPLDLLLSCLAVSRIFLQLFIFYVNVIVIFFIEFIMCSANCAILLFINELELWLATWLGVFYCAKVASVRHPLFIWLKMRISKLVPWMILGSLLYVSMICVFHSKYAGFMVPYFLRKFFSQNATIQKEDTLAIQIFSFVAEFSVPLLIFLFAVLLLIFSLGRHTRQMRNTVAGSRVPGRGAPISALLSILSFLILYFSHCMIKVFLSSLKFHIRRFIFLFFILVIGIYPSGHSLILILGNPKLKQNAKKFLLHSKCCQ

androgen receptor = settings: human MDA-kb2 cells; cited from earlier work
glucocorticoid receptor = target: T2, glucocorticoid receptor (Homo sapiens, UniProt P04150); settings: human MDA-kb2 cells; cited from earlier work
T2 construct: glucocorticoid receptor in human MDA-kb2 cells; endogenous in cells; host or cells: MDA-kb2
T2 sequence (P04150 1-777): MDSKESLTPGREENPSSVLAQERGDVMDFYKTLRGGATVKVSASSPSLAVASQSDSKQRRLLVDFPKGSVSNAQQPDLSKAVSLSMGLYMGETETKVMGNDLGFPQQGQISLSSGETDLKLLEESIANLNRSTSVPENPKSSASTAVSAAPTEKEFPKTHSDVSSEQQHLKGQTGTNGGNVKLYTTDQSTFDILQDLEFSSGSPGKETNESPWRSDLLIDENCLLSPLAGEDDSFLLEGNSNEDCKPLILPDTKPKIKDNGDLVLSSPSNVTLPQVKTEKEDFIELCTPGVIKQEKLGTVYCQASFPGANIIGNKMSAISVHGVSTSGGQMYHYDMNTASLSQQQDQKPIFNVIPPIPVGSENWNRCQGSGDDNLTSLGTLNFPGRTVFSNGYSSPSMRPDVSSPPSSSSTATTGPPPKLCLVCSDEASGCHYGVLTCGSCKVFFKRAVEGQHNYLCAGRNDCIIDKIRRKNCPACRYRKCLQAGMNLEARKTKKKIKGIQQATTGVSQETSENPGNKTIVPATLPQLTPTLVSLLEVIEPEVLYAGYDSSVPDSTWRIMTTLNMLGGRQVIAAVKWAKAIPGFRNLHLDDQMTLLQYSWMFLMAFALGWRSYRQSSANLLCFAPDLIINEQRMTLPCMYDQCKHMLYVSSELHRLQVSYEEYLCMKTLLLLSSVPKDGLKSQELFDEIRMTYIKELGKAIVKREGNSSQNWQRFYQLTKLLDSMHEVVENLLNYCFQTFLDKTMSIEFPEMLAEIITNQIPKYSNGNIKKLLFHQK

## Cc1ccc2oc(-c3ccccc3)cc(=O)c2c1 [6-methylflavone]
TAS2R1; FIG. 5A legend (Piperaquine)
  Inhibition of TAS2R1: did not inhibit
TAS2R1; FIG. 7B legend
  Inhibition of the response of TAS2R1 to TAF: did not inhibit
Androgen receptor
  Agonist activity at androgen receptor, stimulation of luciferase activity: agonist activity
Glucocorticoid receptor
  Antagonist activity at glucocorticoid receptor: antagonist activity
